Publication PMC7156724, “Potent BRD4 inhibitor suppresses cancer cell-macrophage interaction” (Nature Communications, 2020)
Several values for one entry are separate records, joined by “and”; a condition that tells them apart may be missing. Identical values can stand only once. Like-named read-outs stand apart in the source and are kept apart here.

Assays:
[1] = Equilibrium dialysis assay, human plasma
Protocol: The concentration was calculated using the peak area ratio of analyte and internal […]
The results were calculated by the following equations:
% Unbound = 100 *FC / TC, % Bound = 100 * (1-FC / TC)
% Recovery = 100 * (FC + TC) / T0
TC = Total compound concentration as determined by the calculated concentration on the retentate side of the membrane
FC = Free compound concentration as determined by the calculated concentration on the dialysate side of the membrane […]
Equation of first order kinetics: […]
8. Equilibrium dialysis assay. Binding with plasma protein and recovery rate of NHWD-870 were performed with human, CD-1 mouse and SD rat plasma as […]
described 2. […] The concentration was […]
calculated using the peak area ratio of analyte and internal standard. The results were calculated by the following equations: % Unbound = 100 *FC / TC, % Bound = 100 * (1-FC / TC); % Recovery = 100 * (FC + TC) / T0; TC = Total compound concentration as determined by the calculated concentration on the retentate side of the membrane; FC = Free compound concentration as determined by the (1 picture or pasted object on this page, not shown here) […]
calculated concentration on the dialysate side of the membrane; T0 = To t a l compound concentration as determined before dialysis. […]
10. hERG channel assay. […]
HEK293 cell line stably

[2] = In vivo pharmacokinetics study, rat; design: species or system SD rat
Protocol: 4–6 weeks old female BALB/c nude mice were used for most experiments, with the exception of 6–8 weeks old female C57BL/6 mice were used for B16F10 experiments, and 6–8 weeks old male BALB/c nude mice and SD rats were used for pharmacokinetic experiments. All animals were purchased from Shanghai SIPPR-Bk Lab Animal Co., Ltd. All animals were housed under a regimen of 12 h light/12 h dark cycles and specific pathogen-free conditions. 5×10^6 NCI-H526, ES-2, MDA-MB231, A2780, A375, B16F10, and TMD-8 cells (0.1 ml) were injected subcutaneously into female nude mice. The melanoma patient-derived xenograft model was derived from a human melanoma sample (BRAF, NARS and NF1 wild type, and p53 mutant) removed from a patient in Xiangya Hospital. Surgically removed tumor fragments were implanted subcutaneously into female NSG mice. When the tumors grew to ~1000 mm^3, they were harvested and cryopreserved or immediately re-implanted for expansion or experiments. Mouse body weight and tumor sizes were measured every 3 days. Once the tumors grew to 150–200 mm^3, mice were treated with the compounds as described in the Figures. 1 × 10^6 A2780 cells (1 ml) were injected into the abdominal cavity of nude mice. Ascitic volume and tumor weight were measured by an electronic balance. All the procedures were evaluated and approved by the Institutional Animal Care and Use Committee of Central South University and Yale University.
Supplementary Figure 7. Pharmacokinetic profile of NHWD-870 using mouse and rat models.
(a,b) Plasma concentrations of NHWD-870 in healthy (a) mouse and (b) rat after intravenous (IV, 1.75 mg/kg for mouse and 1 mg/kg for rat) and oral (PO, 5 mg/kg) administration. Values shown on the right panels are mean ± SEM from 3 different animals. (c,d) Mean concentrations of NHWD-870 in the lungs (c) and tumors (d) of H526 xenograft model at the indicated hours after oral administration of 3 mg/kg NHWD-870 and BMS-98615821 on day 21. These mice were administrated the indicated drug daily for 21 days. Data are represented as mean ± SEM of 3 independent experiments. Source data are provided as a Source Data file. […]
9. In vivo pharmacokinetics study. Mouse and SD rat models were used to evaluate pharmacokinetic property of NHWD-870. NHWD-870 was administrated […]
Concentration of drugs in plasma, lung and tumor tissues were measured for the indicated time. […]

[3] = male, SD, plasma, iv, 1 mg/kg, IV 1 mg/kg

Cc1nnn(C)c1-c1cnc2c3c4cnn(C)c4ccc3n([C@H](c3ccccc3)C3CCOCC3)c2c1 [NHWD-870]
% Bound ([1]; Human plasma, equilibrium dialysis): 97.5%
fraction unbound ([1]; human, plasma): 0.025
recovery ([1]; human, plasma): 92.8%
AUCExtra ([2]; IV 1 mg/kg): 2.21±0.73%
AUMCExtra ([2]; IV 1 mg/kg): 11.5±3.025%
Cl ([2]; IV 1 mg/kg, 1 mg/kg): 50 mL/min/kg
T1/2 ([2]; IV 1 mg/kg, 1 mg/kg): 0.9 h
Plasma Conc. ([2]; IV bolus, 5 min, individual animals, LLOQ 1.00 ng/mL): 362 ng/mL and 355 ng/mL
Plasma Conc. ([2]; IV bolus, 0.25 h, individual animals, LLOQ 1.00 ng/mL): 274 ng/mL and 247 ng/mL
Plasma Conc. ([2]; IV bolus, 0.5 h, individual animals, LLOQ 1.00 ng/mL): 208 ng/mL and 167 ng/mL
Plasma Conc. ([2]; IV bolus, 1 h, individual animals, LLOQ 1.00 ng/mL): 98.1 ng/mL and 112 ng/mL
Plasma Conc. ([2]; IV bolus, 2 h, individual animals, LLOQ 1.00 ng/mL): 48.1 ng/mL and 40.3 ng/mL
Plasma Conc. ([2]; IV bolus, 4 h, individual animals, LLOQ 1.00 ng/mL): 8.88 ng/mL and 8.14 ng/mL
Plasma Conc. ([2]; IV bolus, 8 h, individual animals, LLOQ 1.00 ng/mL): BQL
Plasma Conc. ([2]; IV bolus, 24 h, individual animals, LLOQ 1.00 ng/mL): BQL
AUCExtra ([2]; PO 5 mg/kg): 3.97±1.15%
AUMCExtra ([2]; PO 5 mg/kg): 11.8±2.615%
Tlast ([2]; PO 5 mg/kg): 8 h
Plasma Conc. ([2]; PO, 0.25 h, individual animals, LLOQ 1.00 ng/mL): 18.8 ng/mL and 13.3 ng/mL
Plasma Conc. ([2]; PO, 0.5 h, individual animals, LLOQ 1.00 ng/mL): 58.3 ng/mL and 33.9 ng/mL
Plasma Conc. ([2]; PO, 1 h, individual animals, LLOQ 1.00 ng/mL): 117 ng/mL and 106 ng/mL and 54.6 ng/mL
Plasma Conc. ([2]; PO, 2 h, individual animals, LLOQ 1.00 ng/mL): 111 ng/mL and 73.5 ng/mL
Plasma Conc. ([2]; PO, 4 h, individual animals, LLOQ 1.00 ng/mL): 48.1 ng/mL and 45.9 ng/mL
Plasma Conc. ([2]; PO, 6 h, individual animals, LLOQ 1.00 ng/mL): 20.2 ng/mL and 15.9 ng/mL and 50.5 ng/mL
Plasma Conc. ([2]; PO, 8 h, individual animals, LLOQ 1.00 ng/mL): 6.96 ng/mL and 4.35 ng/mL and 9.56 ng/mL
Plasma Conc. ([2]; PO, 24 h, individual animals, LLOQ 1.00 ng/mL): BQL
AUC(0-inf) ([2]; male, SD, plasma, IV 1 mg/kg): 331 ± 6.45 ng·h/mL
AUC(0-t) ([2]; male, SD, plasma, IV 1 mg/kg): 323 ± 5.55 ng·h/mL
C0 ([2]; male, SD, plasma, IV 1 mg/kg): 441 ± 17.9 ng/mL
MRT inf ([2]; male, SD, plasma, IV 1 mg/kg): 1.08 ± 0.021 h
MRT last ([2]; male, SD, plasma, IV 1 mg/kg): 0.98 ± 0.045 h
Vd ([2]; male, SD, plasma, IV 1 mg/kg, read-out: Vdss): 3.27 ± 0.0925 L/kg
AUC(0-inf) ([2]; male, SD, plasma, PO 5 mg/kg): 398 ± 9.15 ng·h/mL
AUC(0-t) ([2]; male, SD, plasma, PO 5 mg/kg): 382 ± 12.6 ng·h/mL
Cmax ([2]; male, SD, plasma, PO 5 mg/kg): 101 ± 11.8 ng/mL
MRT inf ([2]; male, SD, plasma, PO 5 mg/kg): 3.28 ± 0.33 h
MRT last ([2]; male, SD, plasma, PO 5 mg/kg): 3 ± 0.256 h
Tmax ([2]; male, SD, plasma, PO 5 mg/kg): 1.67 ± 0.288 h
bioavailability ([2]; male, SD, plasma, PO 5 mg/kg, calculated using AUCinf with nominal dose): 24%
clearance [2, 3]: 50.4 ± 0.965 mL/min/kg
half-life [2, 3]: 0.92 ± 0.0805 h
concentration at 5 min ([2]; male, SD, plasma, iv, 1 mg/kg, IV bolus, 5 min, individual animals, LLOQ 1.00 ng/mL, read-out: Plasma Conc.): 392 ng/mL
concentration at 0.25 h ([2]; male, SD, plasma, iv, 1 mg/kg, IV bolus, 0.25 h, individual animals, LLOQ 1.00 ng/mL, read-out: Plasma Conc.): 259 ng/mL
concentration at 0.5 h ([2]; male, SD, plasma, iv, 1 mg/kg, IV bolus, 0.5 h, individual animals, LLOQ 1.00 ng/mL, read-out: Plasma Conc.): 168 ng/mL
concentration at 1 h ([2]; male, SD, plasma, iv, 1 mg/kg, IV bolus, 1 h, individual animals, LLOQ 1.00 ng/mL, read-out: Plasma Conc.): 96.1 ng/mL
concentration at 2 h ([2]; male, SD, plasma, iv, 1 mg/kg, IV bolus, 2 h, individual animals, LLOQ 1.00 ng/mL, read-out: Plasma Conc.): 39 ng/mL
concentration at 4 h ([2]; male, SD, plasma, iv, 1 mg/kg, IV bolus, 4 h, individual animals, LLOQ 1.00 ng/mL, read-out: Plasma Conc.): 8.15 ng/mL
concentration at 8 h ([2]; male, SD, plasma, iv, 1 mg/kg, IV bolus, 8 h, individual animals, LLOQ 1.00 ng/mL, read-out: Plasma Conc.): 1.09 ng/mL
half-life ([2]; male, SD, plasma, po, 5 mg/kg, PO 5 mg/kg): 1.48 ± 0.155 h
concentration at 0.25 h ([2]; male, SD, plasma, po, 5 mg/kg, PO, 0.25 h, individual animals, LLOQ 1.00 ng/mL, read-out: Plasma Conc.): 18.2 ng/mL
concentration at 0.5 h ([2]; male, SD, plasma, po, 5 mg/kg, PO, 0.5 h, individual animals, LLOQ 1.00 ng/mL, read-out: Plasma Conc.): 56.8 ng/mL
concentration at 2 h ([2]; male, SD, plasma, po, 5 mg/kg, PO, 2 h, individual animals, LLOQ 1.00 ng/mL, read-out: Plasma Conc.): 110 ng/mL
concentration at 4 h ([2]; male, SD, plasma, po, 5 mg/kg, PO, 4 h, individual animals, LLOQ 1.00 ng/mL, read-out: Plasma Conc.): 45.5 ng/mL
